US10842779B2, “Heterocyclic compounds and their use in preventing or treating bacterial infections” (priority 2015, dated 2020)
Read-outs that look alike come from different tables or passages of the source.

Columns and labels:
Assay in all cases: MIC of compounds alone, broth microdilution
Assay type in all cases: cell-based
E. coli = conditions: Escherichia coli
Method: (§1) Method 2: MIC of Compounds and Synergy with Ceftazidime Against Bacterial Isolates (Table 2 and 3)
(§2) Compounds of the present invention were assessed against genotyped bacterial strains alone or in combination with the β-lactam ceftazidime. In the assays, MICs of said compounds, or of ceftazidime at fixed concentrations of said compounds were determined by the broth microdilution method according to the Clinical Laboratory Standards Institute (CLSI—M7-A7). Briefly, compounds alone according to the invention were prepared in DMSO and spotted (2 μL each) on sterile polystyrene plates (Corning, 3788). Compounds and ceftazidime dilutions were prepared in DMSO and spotted (1 μL each) on sterile polystyrene plates (Corning, 3788). Log phase bacterial suspensions were adjusted to a final density of 5×10^5 cfu/mL in cation-adjusted Mueller-Hinton broth (Beckton-Dickinson) and added to each well (98 μL). Microplates were incubated for 16-20 h at 35° C. in ambient air. The MIC of the compounds was defined as the lowest concentration of said compounds that prevented bacterial growth as read by visual inspection. The MIC of ceftazidime at each compound concentration was defined as the lowest concentration of ceftazidime that prevented bacterial growth as read by visual inspection.

C. freundii = conditions: Citrobacter freundii, alone, read-out: MIC
Method: as §1, §2

P. mirabilis = conditions: Proteus mirabilis, PMI UFR82, beta-lactamases CMY-2
Method: as §1, §2

E. aerogenes = conditions: Klebsiella aerogenes; alone; EAE 200261; beta-lactamases TEM-x AmpC; read-out: MIC
Method: as §1, §2

P. aeruginosa = conditions: Pseudomonas aeruginosa, alone, read-out: MIC
Method: as §1, §2

C. murliniae = conditions: alone; CMU 210102; beta-lactamases VIM-4; read-out: MIC
Method: as §1, §2

K. pneumoniae = conditions: Klebsiella pneumoniae, read-out: MIC
Method: as §1, §2

M. morganii = conditions: Morganella morganii, MMO 200321, beta-lactamases TEM-1, CTX-M-15 OXA-1
Method: as §1, §2

## O=C(O)C(F)(F)F.O=C1N2C[C@H](c3scnc3[C@H]2c2ncc[nH]2)N1OS(=O)(=O)[O-].[Na+] (relative stereo) [Example 1, Sodium and 2,2,2-trifluoroacetate [trans-7-(1H-imidazol-3-ium-2-yl)-9-oxo-3-thia-5,8,10-triaza-tricyclo[6.2.1.0^2,6]undeca-2(6),4-dien-10-yl]sulfate]
E. coli; ECO UFR61O, beta-lactamases TEM-1 KPC-2, read-out: MIC
  MIC: 1 µg/mL
E. coli; ECO UFR62, beta-lactamases TEM-1, CTX-M-9 KPC-2, read-out: MIC
  MIC: 0.5 µg/mL
E. coli; ECO UFR74, beta-lactamases SHV-1 DHA-1, read-out: MIC
  MIC: 2 µg/mL
C. freundii; CFR UFR10, beta-lactamases OXA-48
  MIC: 1 µg/mL
C. freundii; CFR UFR11, beta-lactamases TEM-1 OXA-1 OXA-48
  MIC: 8 µg/mL
C. freundii; CFR UFR37, beta-lactamases TEM-1, CTX-M-15 NDM-1
  MIC: 2 µg/mL
P. mirabilis
  MIC: 32 µg/mL
E. aerogenes
  MIC: 8 µg/mL
P. aeruginosa; PAE CIP107051, beta-lactamases TEM-24
  MIC: > 32 µg/mL
P. aeruginosa; PAE MUS, beta-lactamases OXA-20 OXA-18
  MIC: > 32 µg/mL
C. murliniae
  MIC: 4 µg/mL
K. pneumoniae; BAA1898, alone, KPN BAA-1898, beta-lactamases TEM-1, SHV-11, SHV-12 KPC-2
  MIC: 4 µg/mL
K. pneumoniae; alone, KPN 6299, beta-lactamases TEM-1, SHV-11 OXA-163
  MIC: 16 µg/mL
K. pneumoniae; alone, KPN 110376, beta-lactamases TEM-1, SHV-1, CTX-M-15 OXA-1 OXA-48
  MIC: 2 µg/mL
K. pneumoniae; alone, KPN 131119, beta-lactamases TEM-1, SHV-11, CTX-M-15 OXA-1 OXA-48
  MIC: 4 µg/mL
K. pneumoniae; alone, KPN 160143, beta-lactamases TEM-1, SHV-1, CTX-M-15 KPC-2 OXA-1
  MIC: 4 µg/mL
K. pneumoniae; alone, KPN 190128, beta-lactamases TEM-1, SHV-32, CTX-M-15 OXA-1
  MIC: 4 µg/mL
K. pneumoniae; alone, KPN 190270, beta-lactamases TEM-1, SHV-76, CTX-M-15 OXA-1
  MIC: 8 µg/mL
K. pneumoniae; alone, KPN 190425, beta-lactamases TEM-1, SHV-1, CTX-M-15 OXA-1
  MIC: 4 µg/mL
K. pneumoniae; alone, KPN 190551, beta-lactamases TEM-1, SHV-1, CTX-M-15 OXA-1
  MIC: 2 µg/mL
K. pneumoniae; alone, KPN 200047, beta-lactamases TEM-1, SHV-32, CTX-M-15 OXA-1
  MIC: 2 µg/mL
K. pneumoniae; alone, KPN 200327, beta-lactamases TEM-1, SHV-1, CTX-M-15 OXA-1
  MIC: 2 µg/mL
K. pneumoniae; alone, KPN 260251, beta-lactamases TEM-1, SHV-11, SHV-12, CTX-M-15 KPC-2
  MIC: 4 µg/mL
K. pneumoniae; alone, KPN 260252, beta-lactamases TEM-1, SHV-11 KPC-3
  MIC: > 32 µg/mL
K. pneumoniae; alone, KPN 260376, beta-lactamases SHV-1, SHV-49 OXA-1
  MIC: 2 µg/mL
K. pneumoniae; alone, KPN 270077, beta-lactamases TEM-1, SHV-1, CTX-M-15
  MIC: 8 µg/mL
K. pneumoniae; alone, KPN 700603, beta-lactamases SHV-18 OXA-2
  MIC: 4 µg/mL
K. pneumoniae; alone, KPN 6122012, beta-lactamases SHV-1 NDM-1
  MIC: 8 µg/mL
K. pneumoniae; alone, KPN ARA, beta-lactamases TEM-1, SHV-11, CTX-M-15 OXA-1 OXA-48
  MIC: 4 µg/mL
K. pneumoniae; alone, KPN LIB, beta-lactamases SHV-11 OXA-48
  MIC: 2 µg/mL
K. pneumoniae; alone, KPN UFR22_O, beta-lactamases TEM-1, SHV-1 OXA-48
  MIC: 4 µg/mL
K. pneumoniae; alone, KPN UFR24, beta-lactamases TEM-1, SHV-2, SHV-11 OXA-1 OXA-48 OXA-47
  MIC: 8 µg/mL
K. pneumoniae; alone, KPN UFR25, beta-lactamases TEM-1, SHV-11, CTX-M-15 OXA-162
  MIC: 2 µg/mL
K. pneumoniae; alone, KPN UFR27, beta-lactamases TEM-1, SHV-28, CTX-M-15 OXA-204
  MIC: 4 µg/mL
K. pneumoniae; alone, KPN UFR28, beta-lactamases TEM-1, SHV-1, CTX-M-15 OXA-1 OXA-232
  MIC: 2 µg/mL
K. pneumoniae; alone, KPN UFR42, beta-lactamases SHV-2, CTX-M-15 OXA-1 OXA-181 NDM-1
  MIC: 4 µg/mL
K. pneumoniae; alone, KPN UFR43, beta-lactamases SHV-11, CTX-M-15 CMY-2 OXA-1 NDM-1
  MIC: 16 µg/mL
K. pneumoniae; alone, KPN UFR53, beta-lactamases TEM-1 IMP-1
  MIC: 4 µg/mL
K. pneumoniae; alone, KPN UFR65, beta-lactamases TEM-1, SHV-11 KPC-2
  MIC: 16 µg/mL
K. pneumoniae; alone, KPN UFR66, beta-lactamases TEM-1, SHV-11, CTX-M-15 KPC-2
  MIC: 8 µg/mL
K. pneumoniae; alone, KPN UFR68, beta-lactamases TEM-1, SHV-11, CTX-M-15 KPC-3
  MIC: 8 µg/mL
K. pneumoniae; alone, KPN UFR77, beta-lactamases CMY-2
  MIC: 4 µg/mL
K. pneumoniae; alone, KPN UFR79, beta-lactamases DHA-1 OXA-1
  MIC: 4 µg/mL
K. pneumoniae; alone, KPN UFR80, beta-lactamases SHV-11 DHA-1 OXA-1
  MIC: 1 µg/mL
K. pneumoniae; alone, KPN UFR81, beta-lactamases TEM-1, SHV-1 DHA-1 OXA-48
  MIC: 32 µg/mL
M. morganii
  MIC: 32 µg/mL
